This note sets out measurements from US7585833B2, “Malodor covering perfumery” (Givaudan Fragrances Corporation, priority 2005, dated 2009).

The series in a line: Stability and malodor coverage evaluation of odorants in permanent hair color crème (10% ammonia). Also on record: key to odorant performance 1 Week RT / odorant performance 1 Week Oven / odorant performance 2 Weeks RT / odorant performance 2 Weeks Oven / odorant performance 3 Weeks RT / odorant performance 3 Weeks Oven / odorant performance 4 Weeks RT / odorant performance 4 Weeks Oven: E=excellent; VG=very good; G=good; F=fair; P=poor. The note with it: for odorant performance 1 Week Oven / odorant performance 1 Week RT / odorant performance 2 Weeks Oven / odorant performance 2 Weeks RT / odorant performance 3 Weeks Oven / odorant performance 3 Weeks RT / odorant performance 4 Weeks Oven / odorant performance 4 Weeks RT: odorant at 0.2% in dye less permanent hair color crème (10% ammonia hydroxide); for odorant performance 1 Week Oven / odorant performance 2 Weeks Oven / odorant performance 3 Weeks Oven / odorant performance 4 Weeks Oven: oven temperature; for odorant performance 1 Week RT / odorant performance 2 Weeks RT / odorant performance 3 Weeks RT / odorant performance 4 Weeks RT: room temperature. The source says: The marks E, VG, G stand for excellent, very good and good coverage and are part of a 5 scale rating system. […] Odorants were put up at 0.2% in the formulation, and odorants were subjected to 6 week stability testing at room temperature (R.T.) and […] oven temperature. […] G=good, F=fair; P=poor).

For `C=CCOC(=O)COCCC(C)C` [ALLYL AMYL GLYCOLATE], the “odorant performance 1 Week Oven” value is recorded as “G”, the “odorant performance 1 Week RT” value is listed as “G”, the “odorant performance 2 Weeks Oven” value was “F” and the “odorant performance 2 Weeks RT” value is reported as “G”. The “odorant performance 3 Weeks Oven” value was “F”, the “odorant performance 3 Weeks RT” value is “G”, the “odorant performance 4 Weeks Oven” value was “F” and the “odorant performance 4 Weeks RT” value is given as “G”.

On to `CC(C)CC1CC(C)(O)CCO1` (centres unmarked) [FLOROL], for which the “odorant performance 1 Week Oven” value is listed as “F”, the “odorant performance 1 Week RT” value was “F”, the “odorant performance 2 Weeks Oven” value is listed as “P” and the “odorant performance 2 Weeks RT” value was “P”. Also, the “odorant performance 3 Weeks Oven” value was “P”, the “odorant performance 3 Weeks RT” value is “P”, the “odorant performance 4 Weeks Oven” value is “P” and the “odorant performance 4 Weeks RT” value is “P”.

Turning to `CCc1ccc(CC(C)(C)C=O)cc1` [FLORALOZONE], the “odorant performance 1 Week Oven” value is listed as “G”, the “odorant performance 1 Week RT” value is on record as “G”, the “odorant performance 2 Weeks Oven” value is “G” and the “odorant performance 2 Weeks RT” value was “G”. Also, the “odorant performance 3 Weeks Oven” value is “G”, the “odorant performance 3 Weeks RT” value is given as “G”, the “odorant performance 4 Weeks Oven” value is “G” and the “odorant performance 4 Weeks RT” value is reported as “G”.

Consider `CC/C=C\CCOC(C)=O` [cis-3-hexenyl acetate], for which the “odorant performance 1 Week Oven” value is reported as “G”, the “odorant performance 1 Week RT” value is “G”, the “odorant performance 2 Weeks Oven” value is listed as “G” and the “odorant performance 2 Weeks RT” value was “G”. Besides, the “odorant performance 3 Weeks Oven” value is “F”, the “odorant performance 3 Weeks RT” value is listed as “F”, the “odorant performance 4 Weeks Oven” value was “F” and the “odorant performance 4 Weeks RT” value is listed as “F”.

As to `C=CC(C)(O)CCC=C(C)C` (centres unmarked) [LINALOOL SYNTHETIC, LINALOOL], the “odorant performance 1 Week Oven” value was “G”, the “odorant performance 1 Week RT” value is listed as “G”, the “odorant performance 2 Weeks Oven” value is “G” and the “odorant performance 2 Weeks RT” value is reported as “G”. For the same compound, the “odorant performance 3 Weeks Oven” value was “G”, the “odorant performance 3 Weeks RT” value is “G”, the “odorant performance 4 Weeks Oven” value is listed as “G” and the “odorant performance 4 Weeks RT” value was “G”.

`CCOC(=O)CC(C)=O` [ETHYL ACETOACETATE]: the “odorant performance 1 Week Oven” value is reported as “F”, the “odorant performance 1 Week RT” value is listed as “F”, the “odorant performance 2 Weeks Oven” value is “F” and the “odorant performance 2 Weeks RT” value is on record as “F”. In addition, the “odorant performance 3 Weeks Oven” value was “F”, the “odorant performance 3 Weeks RT” value was “F”, the “odorant performance 4 Weeks Oven” value is given as “F” and the “odorant performance 4 Weeks RT” value was “F”. Besides, under “odorant at 0.2% in permanent hair color crème (10% ammonia hydroxide), remark beside the raw material”, the “stability observation in the formulation” value was “ETHYL ACETOACETATE (discolors in oven)”.

With `O=C(OCc1ccccc1)c1ccccc1O` [BENZYL SALICYLATE], the “odorant performance 1 Week Oven” value was “G”, the “odorant performance 1 Week RT” value was “G”, the “odorant performance 2 Weeks Oven” value is listed as “G” and the “odorant performance 2 Weeks RT” value is “G”. For the same compound, the “odorant performance 3 Weeks Oven” value is reported as “F”, the “odorant performance 3 Weeks RT” value is reported as “F”, the “odorant performance 4 Weeks Oven” value was “F” and the “odorant performance 4 Weeks RT” value is “F”.

For `CC(C=O)Cc1ccc(C(C)(C)C)cc1` (stereo not drawn) [Lilial, p-t-Butyl-α-methylhydrocinnamic aldehyde], the “odorant performance 1 Week Oven” value is listed as “G”, the “odorant performance 1 Week RT” value is reported as “G”, the “odorant performance 2 Weeks Oven” value is given as “G” and the “odorant performance 2 Weeks RT” value is “G”. The “odorant performance 3 Weeks Oven” value is “G”, the “odorant performance 3 Weeks RT” value was “G”, the “odorant performance 4 Weeks Oven” value is “G” and the “odorant performance 4 Weeks RT” value is “G”.
